Measurements published in PMC11994961, “In Vivo pharmacokinetic interactions of ribociclib with rivaroxaban and apixaban in rats: implications for increased drug exposure and dose adjustments” (Frontiers in Pharmacology, 2025).

How the values were obtained:
[1] = test system: Cyp3a1(CYP3A4) mRNA in the liver; assay: qRT-PCR mRNA expression in rat liver after ribociclib; assay type: in vivo; settings: rats, ribociclib continuously for 8 days
Description: qRT-PCR analysis was used to determine the mRNA levels of Cyp3a1(CYP3A4) in the liver and Abcb1a (P-gp), Cyp3a1(CYP3A4), Abcg2(BCRP) in the intestines. Total RNA was extracted from frozen liver and intestine samples using the TRNzol Universal reagent, following the manufacturer’s instructions. The Bio Tek Epoch (Bio Tek Instruments, Inc., Winooski, VT, United States) was used to quantify the purity and concentration of the total RNA, based on the ratio of the absorbance at 260 and 280 nm. The RNA samples, each containing 1 µg of material, were converted to complementary DNA (cDNA) using the FastKing RT Kit. The real-time PCR assays were performed using a two-step amplification protocol on the SLAN-96S Real-Time PCR system (Shanghai Hongshi Medical Technology Co., Ltd., Shanghai, China). […] was employed as an internal control, and the PCR cycling criteria were as follows: 95°C for 15 min, followed by 40 cycles of 95°C for 10 s and 60°C for 32 s.

[2] = parameters: method as in Kvasnicka et al., 2017; settings: ref Kvasnicka et al., 2017; cited from earlier work
[3] = parameters: method as in Wang et al., 2023; settings: rats, with almonertinib; ref Wang et al., 2023; cited from earlier work
CYP2J2 = test system: CYP2J2; parameters: method as in Mueck et al., 2013; settings: ref Mueck et al., 2013; cited from earlier work
CYP3A4/5 = test system: CYP3A4/5; parameters: method as in Mueck et al., 2013; settings: ref Mueck et al., 2013; cited from earlier work

Row | SMILES | mRNA expression of Cyp3a1 in the liver [1] | time to maximum plasma concentration (Cmax) after administration [2] [h] | increase in AUC [3] | increase in Cmax [3] | share of total elimination by CYP2J2 (CYP2J2) | share of total elimination by CYP3A4/5 (CYP3A4/5)
1 | CN(C)C(=O)c1cc2cnc(Nc3ccc(N4CCNCC4)cn3)nc2n1C1CCCC1 [RIBO, ribociclib] | no significant changes | – | – | – | – | –
2 | O=C(NC[C@H]1CN(c2ccc(N3CCOCC3=O)cc2)C(=O)O1)c1ccc(Cl)s1 [RIVA, rivaroxaban] | – | 2 to 4 | over three fold increases | over three fold increases | approximately 14% | approximately 18%
